The values below come from US20250002514A1, “AMORPHOUS FORM OF BISMUTH-1,2-ETHANEDITHIOL AND METHODS OF MAKING” (Microbion Corporation, priority 2021, published 2025).

The subject of data set [1] is Pseudomonas aeruginosa strain PA01. Nature of the data set: Bacterial killing curves with and without 10% cystic fibrosis patient sputum. The class given is cell-based. As for the experimental part: Bacterial killing curves with BisEDT and BisBDT were performed in the presence of […] cystic fibrosis patient sputum in order to determine whether the test compounds are potentially inactivated by sputum. The assay is described in King P, Lomovskaya O, Griffith D C, Burns J L, Dudley M N. In vitro pharmacodynamics of levofloxacin and other aerosolized antibiotics under multiple conditions relevant to chronic pulmonary infection in cystic fibrosis. Antimicrob Agents Chemother, 54:143-8, 2010.
Sputum was collected from cystic fibrosis (CF) patient volunteers without recent antibiotic exposure after appropriate IRB approval. Sputum was sterilized by UV irradiation and sterilization was confirmed by culture. An overnight culture of Pseudomonas aeruginosa strain PA01 was used to inoculate fresh cultures in cation-adjusted Mueller-Hinton broth or cation-adjusted Mueller-Hinton broth plus 10% CF patient sputum. Drugs were added to individual culture tubes with and without sputum at the following final concentrations: • BisEDT: 0.1 μg/mL, 2 μg/mL, and 20 μg/mL • BisBDT: 0.1 μg/mL. 4 μg/mL, and 20 μg/mL
Tobramycin at 1 μg/mL was used as a comparator drug control known to be partially inactivated by patient sputum. Cultures were incubated with shaking at 37° C. and aliquots were removed every hour for quantitation of colony forming units per mL (CFU/mL) by serial dilution and plating on tryptic soy agar for a total of 6 hours. CFU were counted after incubation of the plates overnight at 37° C.

Data set [2] can be described thus: BisEDT single-dose rat PK studies comparing inhalation, IV and oral dosing. The class given is in vivo. As for the experimental part: Based on existing in vivo and in vitro toxicology data as well as rat PK and in vitro MIC data, BisEDT suspension for inhalation can be reliably administered at doses providing efficacious lung levels that are tolerated, and it is therefore a viable clinical development candidate. […] 24 hours after single inhalation dose 4,093 ng/g was measured in the lung tissue (which equates to 123 μg/mL in lung fluid) and 4 days (96 hrs) after single dose 2,600 ng/g in lung tissue (which equates to 78 μg/mL in lung fluid). Without being bound by any particular theory, it is believed BisEDT's low solubility provides slow dissolution and long exposure on lung surface fluids with limited systemic exposure via diffusion through lung epithelium. The lung appears to act as a depot for slow systemic exposure with about 10× lower systemic levels than seen in the lung. The terminal phase of the IV data appears to show slow elimination after initial tissue distribution (FIG. 10).

Data set [3] in a line: Nose-only inhalation exposure in F344 rats: whole blood and lung BisEDT concentration (ICP-MS bismuth as surrogate). The class given is in vivo. The note with it: rat; for concentration at 8 h: nominal time 8 hr; for concentration at 12 h: nominal time 12 hr; for concentration at 24 h: nominal time 24 hr; for concentration at 30 h: nominal time 30 hr. The procedure:
Inhalation Exposure: The initial exposure of BisEDT (Bismuth-1,2-ethanedithiol) was formulated as a solution at 100 mg/mL in suspension in 0.5% Tween 80, 10 mM sodium phosphate, pH 7.4, in NaCl (adjusted to approximately 300 mOsm). Aerosols were generated with a commercial compressed air jet nebulizer, Pad LC Plus, operated with an inlet pressure of 20 psi. The aerosols were transitioned into a rodent nose-only inhalation exposure system. The exposure system was operated with an inlet air flow of […] and an exhaust air flow of −5 L/min.
Detailed gross necropsies were performed on all animals (found dead, moribund, or scheduled necropsy) and consisted of a complete external and internal examination including body orifices and cranial, thoracic, and abdominal organs and tissues. All gross findings will be recorded in descriptive terms. […] Lungs collected and weighed.
Tables 6 and 7 below show whole blood BisEDT versus time data and lung BisEDT concentration at sacrifice time data respectively.

[4] abbreviates: both sexes, F344, whole blood, inhaled, single inhalation dose 47 μg/kg, read-out: Whole blood Mean BisEDT Conc.
The mark [5] stands for this setting: both sexes, F344, whole blood, inhaled, single inhalation dose 124 μg/kg, read-out: Whole blood Mean BisEDT Conc.
Setting [6] is: both sexes, F344, whole blood, inhaled, single inhalation dose 400 μg/kg, read-out: Whole blood Mean BisEDT Conc.
The mark [7] stands for this setting: both sexes, F344, whole blood, inhaled, single inhalation dose 3000 μg/kg, read-out: Whole blood Mean BisEDT Conc.

Where two headings read alike, the source gives them in different places.

`C1C[S][Bi]([S]CC[S][Bi]2[S]CC[S]2)[S]1` [BisEDT, Bismuth-1,2-ethanedithiol]: the “Bactericidal activity against PA01 at 0.1 μg/mL” value in data set [1] (0.1 μg/mL, 6 hour assay) is reported as “not bactericidal”. In addition, in data set [1] (10% CF patient sputum in cation-adjusted Mueller-Hinton broth), the “Effect of CF patient sputum on bactericidal activity” value is on record as “partially inhibited”. The “Bactericidal activity against Pseudomonas aeruginosa strain PA01 in this assay” value in data set [1] (overall conclusion of killing curves) is reported as “bactericidal”. The Tolerability entry in data set [2] (100 μg/kg inhalation and IV and 250 μg/kg oral, single dose) is on record as “tolerated”. Besides, the “Systemic levels lower than seen in the lung (fold)” value in data set [2] (after inhalation dosing) was “about 10 ×”. In addition, the “Duration of initial distribution into tissues after IV dosing (biphasic pattern)” value in data set [2] (single 100 μg/kg IV dose) came out at 18 h. Moreover, the “Half-life of lung levels after IV dosing” value in data set [2] (single 100 μg/kg IV dose) was “about 24 hour”. Also, the “Lung levels after IV dosing vs inhalation group” value in data set [2] (single 100 μg/kg IV dose) is listed as less than 5%. The “Blood exposure after inhalation dosing” value in data set [2] (single 100 μg/kg inhalation dose) is “sustained, moderate, blood exposure with relatively stable concentrations across time”. Also, the “Blood concentrations after oral dosing” value in data set [2] (single 250 μg/kg oral dose) is “very low, but sustained and measurable”. In data set [2] (single 250 μg/kg oral dose), the “Lung levels after oral dosing” value is reported as “no lung levels”. In addition, in data set [2] (single inhalation dose (100 μg/kg lung deposited)), the “Half-life in lung tissue after inhalation dosing” value is reported as “about 4 days”. Also, the concentration at 8 h in data set [3] (setting [4]) was 114 ng/mL; in data set [3] (setting [5]) it was 247 ng/mL; in data set [3] (setting [6]) it was 1700 ng/mL; in data set [3] (setting [7]) it was 6570 ng/mL. The concentration at 12 h in data set [3] (setting [4]) stood at 98 ng/mL; in data set [3] (setting [5]) it was 187 ng/mL; in data set [3] (setting [6]), 1250 ng/mL. Further, the concentration at 24 h in data set [3] (setting [4]) is 282 ng/mL; in data set [3] (setting [5]) it was 571 ng/mL; in data set [3] (setting [6]), 2700 ng/mL; in data set [3] (setting [7]) it was 20500 ng/mL. For the same compound, the figures for the concentration at 30 h in data set [3] (setting [4]), in data set [3] (setting [5]) and in data set [3] (setting [6]) were 373 ng/mL, 668 ng/mL and 2740 ng/mL, respectively. In addition, in data set [3] (both sexes, F344, whole blood, inhaled, single inhalation dose 3000 μg/kg, nominal time 1 hr, read-out: Whole blood Mean BisEDT Conc), the concentration at 1 h was 485 ng/mL. For the same compound, in data set [3] (both sexes, F344, whole blood, inhaled, single inhalation dose 3000 μg/kg, nominal time 2 hr, read-out: Whole blood Mean BisEDT Conc), the concentration at 2 h was found to be 2500 ng/mL. The “Lung Mean BisEDT Conc at sacrifice” value in data set [3] (single inhalation dose 47 μg/kg, sac time 30 hr) was determined as 4.8 ng/g; in data set [3] (single inhalation dose 124 μg/kg, sac time 30 hr), 5.9 ng/g; in data set [3] (single inhalation dose 400 μg/kg, sac time 30 hr) it was 12.1 ng/g; in data set [3] (single inhalation dose 3000 μg/kg, sac time 24 hr), 82.3 ng/g.
With `NC[C@H]1O[C@H](O[C@H]2[C@H](O)[C@@H](O[C@H]3O[C@H](CO)[C@@H](O)[C@H](N)[C@H]3O)[C@H](N)C[C@@H]2N)[C@H](N)C[C@@H]1O` [tobramycin, reference compound], the “CFU higher in cultures with sputum compared to cultures without sputum” value in data set [1] (tobramycin 1 μg/mL, 10% CF patient sputum, most time points) is 0.5-1 log CFU/mL.
